# Assay results taken from patent publication US5001258A, “Antibiotic, fumifungin, a microbial process for the preparation thereof, and the use thereof as a pharmaceutical” (Hoechst Aktiengesellschaft, priority 1987, dated 1991).
# How the values were obtained:
# Saccharomyces cerevisiae = experiment: MIC of fumifungin, growth inhibition of Saccharomyces cerevisiae; assay type: cell-based
# Candida albicans = experiment: MIC of fumifungin, growth inhibition of Candida albicans; assay type: cell-based
# Cladosporium resinae = experiment: MIC of fumifungin, growth inhibition of Cladosporium resinae; assay type: cell-based; conditions: Amorphotheca resinae
# Alternaria solani = experiment: MIC of fumifungin, growth inhibition of Alternaria solani; assay type: cell-based
# [1] = Solubility (physicochemical properties of fumifungin); conditions: solvents in which soluble
# Aspergillus niger = experiment: MIC of fumifungin, growth inhibition of Aspergillus niger; assay type: cell-based
# Wild yeast = experiment: MIC of fumifungin, growth inhibition of Wild yeast; assay type: cell-based
# Cercospora beticola = experiment: MIC of fumifungin, growth inhibition of Cercospora beticola; assay type: cell-based
# bacteria = experiment: bactericidal properties; assay type: cell-based
# fungi = experiment: fungicidal properties; assay type: cell-based
smiles,measurement,setting,value
"CCCCCCC(O)CCCCCCC=CC(O)C(OC(C)=O)C(O)C(N)C(=O)O (stereo not shown) [fumifungin, 2-amino-4-acetoxy-3,5,14-tri-hydroxy-Δ^6-eicosenoic acid]",MIC,Saccharomyces cerevisiae,62.5 mg/mL
same,MIC,Candida albicans,62.5 mg/mL
same,MIC,Cladosporium resinae,> 0.9 mg/mL
same,MIC,Alternaria solani,31.2 mg/mL
same,Solubility,[1],"methanol, DMSO"
same,MIC,Aspergillus niger,> 7.8 mg/mL
same,MIC,Wild yeast,62.5 mg/mL
same,MIC,Cercospora beticola,0.9 mg/mL
same,bactericidal properties,bacteria,bactericidal
same,fungicidal properties,fungi,fungicidal
